Where a SMILES comes first, the peptide text is derived from it. Where no end group is shown, it is not given here.
How the values were obtained:
[1] = Cell viability after transfection (crystal violet); assay type: cell-based, human; details: human, HeLa cells, following transfection with DNA formulations
Procedure: (§1) Cell viability. Cells were transfected as described in ‘Transfection Procedure’. Following 24 hours of transfection, the medium was removed and the cells were washed twice with PBS. Afterwards, the cells were dried for 1 hour at room temperature (to allow permeation of the nuclear stain). Crystal violet solution (50 μL of stock solution supplied by Sigma-Aldrich) was added to the cells. They were incubated for 15 min at room temperature. After washing with distilled water (5 times), the cells were dried for 30 min at room temperature. Then, MeOH (200 μL) was added and the suspension was incubated for 1 hour at room temperature. The relative amount of the crystal violet stain retained by viable cells was determined by the absorbance of the methanolic solution at 550 nm.

[2] = system: HeLa cells; assay: Cell viability after transfection (crystal violet); assay type: cell-based, human; details: following transfection with DNA formulations
Procedure: as §1

[3] = cited from earlier work
[4] = Hydrodynamic size, polydispersity index and zeta potential of dendrimer, lipid and mRNA complexes; assay type: physicochemical; details: DOTMA/DOPE w/w 10:1 to mRNA; for Hydrodynamic size: dendrimer, lipid and mRNA complexes
Procedure: The hydrodynamic size, polydispersity index and Zeta potential was determined for a set of the dendrimers disclosed in Tables 1 and 2.

[5] = system: mice tissue; assay: In vivo luciferase DNA expression assays; details: intravenous; DOTMA/DOPE w/w=1:1 to DNA; NP 20:1; 24 h
Procedure: Mice were injected with the dendrimers, lipid and DNA formulations, and tissues were isolated and snap-frozen for luciferase expression analysis 24 h and 48 h post intravenous and intramuscular injection respectively.
The tissues were homogenised with 1× reporter lysis buffer supplemented with Protease Inhibitors. Depending on the tissues, 1.5 to 3 times of the lysis buffer was used for the tissue homogenisation. Following the homogenisation, the lysates were centrifuged and the supernatants were used for assaying luciferase expression and protein content. The luciferase expression level was measured with a luminometer using a luciferase assay kit (Promega), following the manufacturer's instructions. The protein content was measured using a Biorad protein assay kit at 595 nm absorbance, following the manufacturer's instructions.
Mice were injected with the dendrimers, lipid and DNA formulation prepared for detection of luciferase expression post injection. Tissues were isolated and snap-frozen for luciferase expression analysis 24 h and 48 h post intravenous and intramuscular injection respectively.

[6] = system: C2C12 cells; assay: In vitro DNA (luciferase reporter) delivery; assay type: cell-based; details: N:P=8:1, DOTMA/DOPE w/w=1:1 to DNA
Excerpt: FIG. 25. In vitro DNA delivery to HeLa and C2C12 cells. HeLa cells were transfected with either DNA alone, G1,2,3-RL (N:P=5:1) and DOTMA/DOPE (at a w/w=1:1 to DNA) with DNA and G1,2,3-RL (N:P=5:1) and DOPG/DOPE (at a w/w=1:1 to DNA) with DNA (top panel). C2C12 cells (a muscle-derived cell line) were transfected with either DNA alone, polyethylenimine with DNA, G1,2-RL, 3-LR (N:P=8:1) and DOTMA/DOPE (at a w/w=1:1 to DNA) with DNA and NTX2 (N:P=8:1) and DOTMA/DOPE (at a w/w=1:1 to DNA) with DNA (bottom panel). The DNA used in both experiments encodes a luciferase reporter gene. NTX2 is a G1,2-RL, 3-LR dendrimer conjugated to a muscle targeting peptide ASSLINA ((LR)8(KRL)4(KRL)2KGSCGAASSLNIA(Acp)-NH2).
NTX2 is a G1,2-RL, 3-LR dendrimer conjugated to a muscle targeting peptide ASSLINA ((LR)8(KRL)4(KRL)2KGSCGAASSLNIA(Acp)-NH2).

CC(C)C[C@H](NC(=O)[C@H](CCCCN)NC(=O)[C@H](CCCCNC(=O)[C@H](CC(C)C)NC(=O)[C@H](CCCCN)NC(=O)[C@H](CCCCNC(=O)[C@H](CC(C)C)NC(=O)[C@@H](N)CCCCN)NC(=O)[C@H](CC(C)C)NC(=O)[C@@H](N)CCCCN)NC(=O)[C@H](CC(C)C)NC(=O)[C@H](CCCCN)NC(=O)[C@H](CCCCNC(=O)[C@H](CC(C)C)NC(=O)[C@@H](N)CCCCN)NC(=O)[C@H](CC(C)C)NC(=O)[C@@H](N)CCCCN)C(=O)NCCCC[C@H](NC(=O)[C@H](CC(C)C)NC(=O)[C@H](CCCCN)NC(=O)[C@H](CCCCNC(=O)[C@H](CC(C)C)NC(=O)[C@H](CCCCN)NC(=O)[C@H](CCCCNC(=O)[C@H](CC(C)C)NC(=O)[C@@H](N)CCCCN)NC(=O)[C@H](CC(C)C)NC(=O)[C@@H](N)CCCCN)NC(=O)[C@H](CC(C)C)NC(=O)[C@H](CCCCN)NC(=O)[C@H](CCCCNC(=O)[C@H](CC(C)C)NC(=O)[C@@H](N)CCCCN)NC(=O)[C@H](CC(C)C)NC(=O)[C@@H](N)CCCCN)C(=O)NCC(=O)N[C@@H](CO)C(=O)N[C@@H](CS)C(N)=O [G1,2,3-KL, (KL)8(KKL)4(KKL)2KGSC-NH2] (HELM PEPTIDE1{K.L.K.K.L.K.K.L.K.G.S.C.[am]}|PEPTIDE2{K.L}|PEPTIDE3{K.L.K.K.L.K.K.L}|PEPTIDE4{K.L}|PEPTIDE5{K.L.K.K.L}|PEPTIDE6{K.L}|PEPTIDE7{K.L.K.K.L}|PEPTIDE8{K.L}$PEPTIDE1,PEPTIDE2,3:R3-2:R2|PEPTIDE3,PEPTIDE4,3:R3-2:R2|PEPTIDE5,PEPTIDE6,3:R3-2:R2|PEPTIDE7,PEPTIDE8,3:R3-2:R2|PEPTIDE1,PEPTIDE7,6:R3-5:R2|PEPTIDE1,PEPTIDE3,9:R3-8:R2|PEPTIDE3,PEPTIDE5,6:R3-5:R2$$$V2.0)
viability at 24 h [1]: ≥ 40%

CC(C)C[C@H](NC(=O)[C@@H](N)CCCNC(=N)N)C(=O)NCCCC[C@H](NC(=O)[C@H](CC(C)C)NC(=O)[C@@H](N)CCCNC(=N)N)C(=O)NCC(=O)N[C@@H](CO)C(=O)N[C@@H](CS)C(N)=O [G1-RL, (RL)2KGSC-NH2] (HELM PEPTIDE1{R.L.K.G.S.C.[am]}|PEPTIDE2{R.L}$PEPTIDE1,PEPTIDE2,3:R3-2:R2$$$V2.0)
cell death [2]: 40%

ClC(Cl)(Cl)Cl [carbon tetrachloride]
AST and ALT threshold levels in disease model of liver damage ([3]; Bonnet et al 2008): greater than 7000 U/L

(LR)8(KLR)4(KLR)2KGSC-NH2 [G1,2,3-LR]
Polydispersity Index (PDI) ([4]; N:P 0.16:1): 0.168 | Zeta Potential ([4]; N:P 0.16:1): 43 mV | Polydispersity Index (PDI) ([4]; N:P 8:1): 0.272 | Zeta Potential ([4]; N:P 8:1): 60 mV | Hydrodynamic size ([4]; N:P 0.16:1): 121 nm | Hydrodynamic size ([4]; N:P 8:1): 83 nm | luciferase expression in tissues, DNA delivery [5]: the most effective delivery to skeletal muscle

(LR)8(KRL)4(KRL)2KGSCGAASSLNIA(Acp)-NH2 [NTX2]
luciferase expression after DNA transfection [6]: further increase transfection efficiency

KLKLKGSC-NH2 [G1-KL, (KL)2KGSC-NH2]
cell death [2]: 40%

Lipopolysaccharides
TNF-alpha level ([3]; in vivo): up to 5000 μg/mL

Reference: patent US20240108753A1, “NUCLEIC ACID DELIVERY” (NUNTIUS THERAPEUTICS LIMITED, priority 2021, published 2024)
